Results taken from US10278942B2 (PELOTON THERAPEUTICS, INC., priority 2015, dated 2019).

What follows are compounds tested against T1, HIF-2α HIS TAG-PASB Domain (Homo sapiens, UniProt Q99814) (assay: HIF-2α Scintillation Proximity Assay (SPA)). Conditions: Scintillation Proximity Assay IC50 (nM).
T1 construct: 100 nM HIF-2α HIS TAG-PASB Domain
Format: binding
Method: The total assay volume was about 100 μL in the following configuration: 2 μL compound in 100% DMSO, 88 μL buffer with protein and probe and 10 μL of SPA beads. […] The percent inhibition was determined and IC50 values were calculated using the Dotmatics system based on the following equation: % inhibition=[(high control−sample)/(high control−low control)]×100.

T1 sequence (Q99814 240-350 limits assumed): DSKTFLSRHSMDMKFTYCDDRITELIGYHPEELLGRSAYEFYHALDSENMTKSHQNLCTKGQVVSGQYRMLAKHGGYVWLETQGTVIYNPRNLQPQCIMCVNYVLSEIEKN

| SMILES | IC50 [nM] |
| --- | --- |
| CC1(C)C(O)c2c(ccc(Oc3cc(F)cc(Cl)c3)c2Br)S1(=O)=O (centres unmarked) [Compound 406] | > 1000 |
| O=S1(=O)c2ccc(Oc3cc(F)cc(Cl)c3)cc2C(O)C1(F)F (centres unmarked) [Compound 362] | > 1000 |
| N#Cc1cc(F)cc(Oc2ccc3c(c2C(F)F)C(=O)C(F)(F)S3(=O)=O)c1 [Compound 385] | > 1000 |
| O=S(=O)(c1ccc(Oc2cc(F)cc(Cl)c2)c(Cl)c1)C(F)(F)F [Compound 128] | 50 to 249 |
| CS(=O)(=O)c1ccc(Oc2cc(F)cc(C#N)c2)c2c1C(O)C(F)(F)CC2 (centres unmarked) [Compound 181] | > 1000 |

Same assay, conditions: read-out: Scintillation Proximity Assay IC50

| IC50 [nM] | SMILES |
| --- | --- |
| > 1000 | CS(=O)(=O)N=S(=O)(CF)c1ccc(Oc2cc(F)cc(C#N)c2)c2c1[C@H](O)C(F)(F)C2 (some centres unmarked) [Compound 284] |
| > 1000 | CS(=O)(=O)CCCOc1ccc(S(=O)(=O)C(F)(F)F)c2c1CC(F)(F)C2O (centres unmarked) [Compound 631] |
| > 1000 | CS(=O)(=O)c1ccc(N2CCC[C@H](O)C2)c2c1[C@H](O)C(F)(F)[C@@H]2F [Compound 484, (S)-1-((1S,3R)-2,2,3-trifluoro-1-hydroxy-7-(methylsulfonyl)-2,3-dihydro-1H-inden-4-yl)piperidin-3-ol] |
| > 1000 | CS(=O)(=O)c1ccc(O[C@H]2CC[C@H](C#N)CC2)c2c1[C@H](O)C(F)(F)[C@@H]2F [Compound 757] |
| > 1000 | COCCOc1ccc(S(=O)(=O)C(F)(F)F)c2c1CCC2O (centres unmarked) [Compound 599] |
| > 1000 | CS(=O)(=O)c1ccc(OCCC2(C#N)CC2)c2c1[C@H](O)C(F)(F)[C@@H]2F [Compound 772] |
| > 1000 | CS(=O)(=O)c1ccc(C(F)(F)CO)c2c1[C@H](O)C(F)(F)C2 [Compound 556] |
| > 1000 | Cn1cc(-c2ccc(S(=O)(=O)C(F)(F)F)c3c2CC(F)(F)[C@H]3O)cn1 [Compound 566] |
| > 1000 | CCOc1ccc2c(c1C(F)F)[C@@H](O)C(F)(F)S2(=O)=O [Compound 438] |
| > 1000 | CS(=O)(=NC#N)c1ccc(Oc2cc(F)cc(C#N)c2)c2c1C(O)CC2 (centres unmarked) [Compound 68] |
| > 1000 | CCOc1ccc(C#N)c2c1CC(F)(F)[C@H]2O [Compound 674] |
| > 1000 | CC(=O)Nc1ccc(S(=O)(=O)C(F)(F)F)c2c1CCC2O (centres unmarked) [Compound 518] |
| > 1000 | CC(Oc1ccc(S(=O)(=O)C(F)(F)F)c2c1CC(F)(F)C2O)c1ccccc1 (centres unmarked) [Compound 664] |
| > 1000 | CC(=O)NCCOc1ccc(S(=O)(=O)C(F)(F)F)c2c1CC(F)(F)C2O (centres unmarked) [Compound 636] |
| > 1000 | CO[C@H]1c2c(S(C)(=O)=O)ccc(Oc3cc(F)cc(C#N)c3)c2CC1(F)F [Compound 210] |
| > 1000 | CS(=O)(=O)c1ccc(O[C@H]2CC[C@@H](C#N)CC2)c2c1[C@H](O)C(F)(F)[C@@H]2F [Compound 758] |
| > 1000 | N#CCS(=O)(=O)c1ccc(Oc2cc(F)cc(F)c2)c2c1C(O)CC2 (centres unmarked) [Compound 14] |

| IC50 [nM] | SMILES |
| --- | --- |
| > 1000 | N#Cc1cc(F)cc(Oc2ccc(S(N)(=O)=O)c3c2[C@@H](O)C(F)(F)[C@H]3O)c1 [Compound 337] |
| > 1000 | NC(=O)Cc1ccc(S(=O)(=O)C(F)(F)F)c2c1CC(F)(F)C2O (centres unmarked) [Compound 526] |
| > 1000 | CC(Oc1ccc(S(=O)(=O)C(F)(F)F)c2c1CC(F)(F)C2O)C(=O)N(C)C (centres unmarked) [Compound 647] |
| > 1000 | CS(=O)(=O)c1ccc(Oc2cc(F)cc(C#N)c2)c2c1C(O)C1(CC1)C2 (centres unmarked) [Compound 217] |
| > 1000 | CS(=O)(=O)c1ccc(Nc2ccc(F)cc2)c2c1C(O)CC2 (centres unmarked) [Compound 497] |
| > 1000 | O=S(=O)(c1ccc(C(O)CO)c2c1[C@H](O)C(F)(F)C2)C(F)(F)F (some centres unmarked) [Compound 533] |
| > 1000 | COc1ccc(S(C)(=O)=O)c2c1CCC2O (centres unmarked) [Compound 776] |
| > 1000 | NCCOc1ccc(S(=O)(=O)C(F)(F)F)c2c1CC(F)(F)C2O (centres unmarked) [Compound 635] |
| 250 to 1000 | COC(=O)C(C)Oc1ccc(S(=O)(=O)C(F)(F)F)c2c1CC(F)(F)C2O (centres unmarked) [Compound 648] |
| > 1000 | CC1(C)CC[C@H](O)[C@H](c2ccc(S(=O)(=O)C(F)(F)F)c3c2CC(F)(F)[C@H]3O)C1 [Compound 548] |
| > 1000 | CS(=O)(=O)N1CC(Oc2ccc(S(=O)(=O)C(F)(F)F)c3c2CC(F)(F)[C@H]3O)C1 [Compound 793] |
| < 50 | N#CN=S(=O)(CF)c1ccc(Oc2cc(F)cc(C#N)c2)c2c1[C@H](O)C(F)(F)C2 (some centres unmarked) [Compound 286] |
| > 1000 | C[C@]1(F)Cc2c(Oc3cc(F)cc(C#N)c3)ccc(S(C)(=O)=O)c2[C@@H]1O [Compound 298] |
| > 1000 | CS(=O)(=O)c1ccc(C(F)(F)CO)c2c1C(O)C(F)(F)C2 (centres unmarked) [Compound 555] |
| 250 to 1000 | CS(=O)(=O)c1ccc(Oc2cc(F)cc(Cl)c2)c2c1C(O)CC2CO (centres unmarked) [Compound 281] |
| > 1000 | O=S(=O)(c1ccc(OC2CCC(O)CC2)c2c1C(O)CC2)C(F)(F)F (centres unmarked) [Compound 615] |
| > 1000 | O=S(=O)(c1ccc(-c2cn[nH]c2)c2c1[C@H](O)C(F)(F)C2)C(F)(F)F [Compound 560] |

The remaining lines, values behind:

| SMILES | IC50 [nM] |
| --- | --- |
| N#Cc1cc(F)cc(Oc2ccc(Br)c3c2C(F)(F)C(F)(F)C3)c1 [Compound 248] | > 1000 |
| N=S(=O)(c1ccc(Oc2cc(F)cc(Cl)c2)c(Br)c1)C(F)(F)F (centres unmarked) [Compound 71] | 250 to 1000 |
| C=CCC1(O)c2c(S(=O)(=O)C(F)F)ccc(Oc3cc(F)cc(F)c3)c2CC1(F)F (centres unmarked) [Compound 12] | > 1000 |
| O=S(=O)(c1ccc(Oc2cc(F)cc(Cl)c2)c(Br)c1CNCCO)C(F)(F)F [Compound 108] | > 1000 |
| N#Cc1c(Oc2cc(F)cc(F)c2)ccc2c1C(O)(C(F)(F)F)CS2(=O)=O (centres unmarked) [Compound 448] | > 1000 |
| COc1cncc(Oc2ccc3c(c2Br)[C@@H](O)C(F)(F)S3(=O)=O)c1 [Compound 429] | > 1000 |
| O/N=C1/c2c(C(F)(F)F)ccc(OCCCF)c2CC1(F)F [Compound 702] | > 1000 |
| O=S(=O)(c1ccc(-c2ccc3cn[nH]c3c2)c2c1[C@H](O)C(F)(F)C2)C(F)(F)F [Compound 568] | > 1000 |
| Cc1cc(Oc2ccc(S(=O)(=O)C(F)F)c3c2CC(F)(F)C3=O)ccc1F [Compound 197] | 250 to 1000 |
| O=C1c2c(C(F)(F)F)ccc(OCC(F)F)c2CC1(F)F [Compound 695] | > 1000 |
| O=S(=O)(c1ccc(Nc2ccc(F)c(Cl)c2)c2c1C(O)CC2)C(F)(F)F (centres unmarked) [Compound 504] | > 1000 |
| N#Cc1cc(F)cc(Oc2ccc3c(c2C(F)F)C(N)C(F)(F)S3(=O)=O)c1 (centres unmarked) [Compound 387] | 50 to 249 |
| NC(=O)C1CCc2c(OCC(F)F)ccc(C(=O)O)c21 (centres unmarked) [Compound 693] | > 1000 |
| CS(=O)(=O)c1ccc(Oc2cncc(Br)c2)c2c1C(=O)C(F)(F)C2 [Compound 323] | > 1000 |
| N=S1(=O)c2ccc(Oc3cc(F)cc(F)c3)c(C(F)F)c2C(O)C1(F)F (centres unmarked) [Compound 399] | 50 to 249 |
| CNCc1c(S(=O)(=O)C(F)(F)F)ccc(Oc2cc(F)cc(Cl)c2)c1Br [Compound 109] | > 1000 |
| N#Cc1cc(F)cc(Oc2ccc3c(c2C(F)F)C(=N)C(F)S3(=O)=O)c1 (centres unmarked) [Compound 373] | > 1000 |
| CC(=O)c1c(S(=O)(=O)C(F)(F)F)ccc(Oc2cc(F)cc(C#N)c2)c1C#N [Compound 79] | > 1000 |
| CNCc1c(S(=O)(=O)C(F)(F)F)ccc(Oc2cc(F)cc(Cl)c2)c1Cl [Compound 113] | > 1000 |

| SMILES | IC50 [nM] |
| --- | --- |
| COC1Cc2c(OCC(F)F)ccc(C(F)(F)F)c2C1O (centres unmarked) [Compound 668] | > 1000 |
| CS(=N)(=O)c1ccc(Oc2cc(F)cc(Cl)c2)c(C#N)c1Cl (centres unmarked) [Compound 180] | > 1000 |
| O=S(=O)(c1ccc(Oc2cc(F)cc(Cl)c2)c(Cl)c1CNC1CCCOC1)C(F)F (centres unmarked) [Compound 49] | > 1000 |
| C=CCN=S(=O)(c1ccc(Oc2cc(F)cc(C#N)c2)c2c1[C@H](O)C(F)(F)C2)C(F)(F)F (some centres unmarked) [Compound 307] | 250 to 1000 |
| O=S(=O)(c1ccc(Oc2ccc(Cl)c(Cl)c2)c(Br)c1)C(F)(F)F [Compound 169] | > 1000 |
| O=C1Cc2ccc(-c3ccc(S(=O)(=O)C(F)(F)F)c4c3CC(F)(F)[C@H]4O)cc2N1 [Compound 567] | > 1000 |
| N#Cc1cc(S(=N)(=O)C(F)(F)F)ccc1Oc1cc(F)cc(Cl)c1 (centres unmarked) [Compound 72] | 250 to 1000 |
| O=C1CS(=O)(=O)c2ccc(Oc3cc(F)cc(F)c3)cc21 [Compound 417] | > 1000 |
| Nc1ccc(Cl)cc1-c1ccc(S(=O)(=O)C(F)(F)F)c2c1CC(F)(F)[C@H]2O [Compound 540] | > 1000 |
| O=S(=O)(c1ccc(Sc2cc(F)cc(Cl)c2)c2c1[C@H](O)CC2)C(F)F [Compound 493, (R)-4-((3-chloro-5-fluorophenyl)thio)-7-((difluoromethyl)sulfonyl)-2,3-dihydro-1H-inden-1-ol] | > 1000 |
| O[C@H]1c2c(C(F)(F)F)ncc(O[C@H]3C[C@H](F)C3)c2C[C@H]1F [Compound 478] | < 50 |
| O=C(O)Cc1ccc(S(=O)(=O)C(F)(F)F)c2c1CC[C@H]2O [Compound 524, (R)-2-(1-hydroxy-7-((trifluoromethyl)sulfonyl)-2,3-dihydro-1H-inden-4-yl)acetic acid] | > 1000 |
| OC1c2c(Br)ccc(OC(F)(F)F)c2CC1(F)F (centres unmarked) [Compound 653] | > 1000 |
| N#Cc1c(Oc2cc(F)cc(Cl)c2)ccc2c1[C@H](O)CS2(=O)=O [Compound 407] | > 1000 |
| O=S(=O)(c1ccc(Cn2nccn2)c2c1[C@H](O)C(F)(F)C2)C(F)(F)F [Compound 535] | > 1000 |
| O=S(=O)(CF)c1ccc(Oc2cc(F)cc(Cl)c2)c(Br)c1 [Compound 137] | 250 to 1000 |
| C=CCN=S(=O)(c1ccc(Oc2cc(F)cc(C#N)c2)c2c1[C@H](O)C(F)(F)C2)C(F)(F)F (some centres unmarked) [Compound 308] | 50 to 249 |
| NC1c2c(ccc(Oc3cc(F)cc(F)c3)c2C(F)F)S(=O)(=O)C1F (centres unmarked) [Compound 366] | > 1000 |
| O=S(=O)(c1ccc(Oc2cc(F)cc(Cl)c2)c2c1COC2O)C(F)F (centres unmarked) [Compound 88] | > 1000 |
